From patent US8148556B2, “Method of producing tibolone metabolites by fermentation with Rhizopus stolonifer” (priority 2007, dated 2012)
Entries after “also recorded” stand apart in the source; their conditions may differ.

Legend:
[1] = test system: α-Glucosidase (E.C.3.2.1.20); assay: α-Glucosidase enzyme inhibition assay; assay type: biochemical; conditions: for Active (activity against alpha-glucosidase enzyme): Table 1; for IC50: pH 6.9, 37° C., 0.7 mM PNP-G substrate, NA = inactive compounds
Description: α-Glucosidase Enzyme Inhibition Assay
α-Glucosidase (E.C.3.2.1.20) enzyme inhibition assay has been performed according to the slightly modified method of Matsui et al. α-Glucosidase (E.C.3.2.1.20) from Saccharomyces sp. was purchased from Wako Pure Chemical Industries Ltd. (Wako 076-02841). The inhibition has been measured spectrophotometrically at pH 6.9 and at 37° C. using 0.7 mM p-nitrophenyl α-D glucopyranoside (PNP-G) as a substrate and 250 m units/mL enzyme in 50 mM sodium phosphate buffer containing 100 mM NaCl. […] The increment in absorption at 400 nm due to the hydrolysis of PNP-G by α-glucosidase was monitored continuously with the spectrophotometer (Molecular Devices, USA). The concentrations of the test compounds, which inhibited the hydrolysis of PNP-G by α-glucosidase by 50% (IC50), were determined by monitoring the effect of increasing the concentration of these compounds on the inhibition values. The IC50 values were then calculated using EZ-Fit enzyme kinetics program (Perrella Scientific Inc., Amherst, Mass., U.S.A.).

enzyme tyrosinas = target: T1, enzyme tyrosinas (Homo sapiens, UniProt P14679); assay: inhibitory activity against enzyme tyrosinas; assay type: biochemical
T1 sequence (P14679 19-529): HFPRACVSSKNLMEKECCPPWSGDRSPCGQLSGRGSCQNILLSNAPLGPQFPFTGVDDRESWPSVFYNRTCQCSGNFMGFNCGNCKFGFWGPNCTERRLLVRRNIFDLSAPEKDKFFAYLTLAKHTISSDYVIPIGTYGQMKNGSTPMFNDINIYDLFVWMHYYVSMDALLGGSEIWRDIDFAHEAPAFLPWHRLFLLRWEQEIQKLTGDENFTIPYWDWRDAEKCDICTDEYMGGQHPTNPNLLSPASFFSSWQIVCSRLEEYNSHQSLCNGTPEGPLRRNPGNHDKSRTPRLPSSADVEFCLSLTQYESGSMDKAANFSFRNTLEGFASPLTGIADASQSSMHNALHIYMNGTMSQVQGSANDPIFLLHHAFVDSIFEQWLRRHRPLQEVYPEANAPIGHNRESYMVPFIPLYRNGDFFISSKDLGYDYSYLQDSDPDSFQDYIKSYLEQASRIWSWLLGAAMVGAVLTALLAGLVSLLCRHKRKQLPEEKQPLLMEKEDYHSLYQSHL

SMILES | Active (activity against alpha-glucosidase enzyme) [1] | inhibitory activity against α-Glucosidase enzyme (in words) [1] | IC50 [1] [µM] | melting point [°C] | inhibitory activity against enzyme tyrosinas (in words) (enzyme tyrosinas)
C#CC1(O)CCC2C3C(C)C=C4CC(=O)CCC4C3CCC21C (stereo not drawn) [Compound 11, 7α-methyl-17α-ethynl-17β-hydroxy-19-norandrost-5-en-3-one] | No |  |  |  | 
C#CC1(O)CCC2C3C(C)CC4=CC(=O)CCC4(O)C3CCC21C (stereo not drawn) [Compound 8, 7α-methyl-17α-ethynl-10β,17β-dihydroxy-19-norandrost-4-en-3-one] | No | pronounced inhibitory activities | 877 ± 0.03 |  | 
C#CC1(O)CCC2C3C(C)C(O)C4=CC(=O)CCC4C3CCC21C (stereo not drawn) [Compound 12, 6β-Hydroxy-Δ^4-tibolone] | Yes | pronounced inhibitory activities; also recorded: pronounced inhibitory activity | 653 ± 0.02 | 189 to 193 | 
C#CC1(O)CC(O)C2C3C(C)CC4=C(CCC(=O)C4)C3C(O)CC21C (stereo not drawn) [Compound 9, 7α-methyl-17α-ethynl-11α,15β,17β-trihydroxy-19-norandrost-5(10)-en-3-one] | No |  |  |  | pronounced inhibitory activity
C#C[C@]1(O)CC[C@H]2[C@@H]3[C@H](C)[C@@H](OC)C4=CC(=O)CC[C@@H]4[C@H]3CC[C@@]21C [Compound 16, 7α-methyl-17α-ethynl-6β-methoxy-17β-hydroxy-19-norandrost-4-en-3-one] | No |  |  |  | 
C#C[C@]1(O)CC[C@H]2[C@@H]3[C@H](C)CC4=C(CCC(=O)C4)[C@H]3CC[C@@]21C [Compound 1, Tibolone] | No |  |  |  | 
C#CC1(O)CC(O)C2C3C(C)CC4=CC(=O)CCC4C3CCC21C (stereo not drawn) [Compound 14, 15α-Hydroxy-Δ^4-tibolone] | Yes |  | < 70 |  | 
C#CC1(O)CC(O)C2C3C(C)C=C4CC(=O)CCC4C3C(O)CC21C (stereo not drawn) [Compound 10, 7α-methyl-17α-ethynl-11α,15β,17β-trihydroxy-19-norandrost-5-en-3-one] | No |  |  |  | pronounced inhibitory activity
C#CC1(O)CCC2C3C(C)C(O)C4=CC(=O)C=CC4C3CCC21C (stereo not drawn) [Compound 15, 7α-methyl-17α-ethynl-6α,17β-dihydroxy-19-norandrost-1,4-dien-3-one] | Yes | significant activity; also recorded: pronounced inhibitory activity | 340 ± 0.02 |  | 
C#C[C@]1(O)CC[C@H]2[C@@H]3[C@H](C)CC4=C(CC[C@H](O)C4)[C@H]3CC[C@@]21C [Compound 2, 3β-hydroxytibolone] | No |  |  |  | 
C#CC1(O)CCC2C3C(C)C(O)C4=CC(=O)CCC4C3CCC21C (stereo not drawn) [Compound 13, 6α-Hydroxy-Δ^4-tibolone] | Yes | pronounced inhibitory activities; also recorded: pronounced inhibitory activity | < 70 | 187 to 190 | 
C#C[C@]1(O)CC[C@H]2[C@@H]3[C@H](C)CC4=C(CC[C@@H](O)C4)[C@H]3CC[C@@]21C [Compound 3, 3α-hydroxytibolone] | No |  |  |  | 
C#CC1(O)CCC2C3C(C)CC4=CC(=O)C=CC4C3CCC21C (stereo not drawn) [Compound 7, 7α-methyl-17α-ethynl-17β-hydroxy-19-norandrost-1,4-dien-3-one] | Yes | significant activity | 227 ± 0.02 |  | 
